The values that follow come from patent US20100204275A1 (published 2010).

Structures can show the parent of a compound that is named as a salt.

Take `CC(=O)N(CC1CCNCC1)c1ccc(Cl)c(Cl)c1` (as salt: trifluoroacetic acid salt): the melting point lay in the range of 172 to 174 °C.
The value for `CCC(=O)N(CC1CCNCC1)c1ccc(Cl)cn1` (as salt: trifluoroacetic acid salt) was 134 to 136 °C.
`COCC(=O)N(CC1CCNCC1)c1ccc(Cl)c(Cl)c1` (as salt: salt): the melting point lay in the range of 115 to 117 °C.
The value for `CCC(=O)N(CC1CCNCC1)c1ccc2cc(OC)ccc2c1.O=C(O)C(F)(F)F` was 168 to 170 °C.
For `CCC(=O)N(CC1CCNCC1)c1ccccn1` (as salt: trifluoroacetic acid salt), the melting point was in the range of 108 to 110 °C.
`CCC(=O)N(CC1CCNCC1)c1ccc2cc(OCc3ccccc3)ccc2c1.O=C(O)C(F)(F)F` displayed a melting point of 151 to 153 °C.
The value for `CCC(=O)N(CC1CCNCC1)c1cccc(Cl)c1` (as salt: salt) was 94 to 96 °C.
In the case of `CCC(=O)N(CC1CCNCC1)c1ccccc1` (as salt: trifluoroacetic acid salt), the melting point was in the range of 98 to 100 °C.

The term melting point denotes the temperature of the solid-liquid transition.
